Here are results for 12 molecules from patent publication US20240018125A1, “CYCLIC ISOTHIOUREA DERIVATIVES AS CXCR4 MODULATORS” (ERMIUM THERAPEUTICS, priority 2020, published 2024).

For data set [1], the target named is T1, human CXCR4 (hCXCR4) receptor (Homo sapiens, UniProt P61073).
T1 construct: expressed in transfected cells; host or cells: HEK-293 T cells, transient co-transfection with polyethylenimine
In words: BRET assay of antagonist activity on the CXCR4-CXCL12 signaling pathway (Gαi2 recruitment) in HEK-293 T cells. The conditions noted are these: HEK-293 T cells with hCXCR4, Gαi2 and BRET biosensors; 10 min with compound, then EC80 CXCL12. It is filed as cell-based. The method, then: Examples of the present invention were tested for their antagonist activity on human CXCR4 (hCXCR4) receptor transiently over-expressed in HEK-293 T cells. Compounds exert antagonist activity if they decrease the action of CXCL12 on the receptor.
The specific effector (luciferase tagged: BRET donor) recruited at the membrane will be in close proximity to a plasma membrane anchor (GFP tagged: BRET acceptor) to induce a BRET signal (Hamdan et a1, 2006, Chapter 5, Current Protocols in Neuroscience).
HEK-293 T cells are maintained in Dulbecco's Modified Eagle's Medium supplemented with 10% Foetal Calf Serum, 1% Penicillin/Streptomycin at 37° C./5% CO2. Cells are co-transfected using polyethylenimine (25 kDa linear) with several DNA plasmids encoding: hCXCR4; Gai2; an intracellular effector fused to luciferase (BRET donor); a plasma membrane effector fused to GFP (BRET acceptor). After transfection, cells are cultured for 48 h at 37° C./5% CO2. On the day of the assay, cells are detached using trypsin 0.05%, resuspended in assay buffer (1.8 mM CaCl2, 1 mM MgCl2, 2.7 mM KCl, 137 mM NaCl, 0.4 mM NaH2PO4, 5.5 mM D-Glucose, 11.9 mM NaHCO3, 25 mM Hepes) and seeded in 384 well plate at a density of 20,000 cells per well. Then, plates are equilibrated 3.5 h at 37° C. before adding compounds. Compounds and luciferase substrate are added to the cells using an automated device (Freedom Evo®, Tecan) and BRET readings are collected on EnVision (PerkinElmer) with specific filters (410 nm BW 80 nm, 515 nm BW 30 nm).
Cells are first incubated for 10 minutes with the compound alone. Then, cells are stimulated by an EC80 CXCL12 concentration for additional 10 minutes and luminescence is recorded. EC80 CXCL12 concentration is the concentration giving 80% of the maximal CXCL12 response. Antagonist activity is evaluated in comparison to basal signals evoked by EC80 CXCL12 alone.
For IC50 determination, a dose-response test is performed using 20 concentrations (ranging over 6 logs) of each compound. Dose-response curves are fitted using the sigmoidal dose-response (variable slope) analysis in GraphPad Prism software (GraphPad Software) and IC50 of antagonist activity is calculated. Dose-response experiments are performed in duplicate, in two independent experiments.
HEK-293 T cells were transfected to allow measuring the recruitment of Gai2 proteins involved in intracellular signaling by human CXCR4 receptor (hCXCR4) via the BRET technology. Cells were then incubated with various concentrations of examples of the invention before stimulation with an EC80 concentration of CXCL12.

Data set [2] concerns peripheral blood mononuclear cells (PBMCs) from healthy donors. In words: IFN production by R848-activated PBMCs, quantified with twINNE luciferase reporter cell line. The conditions noted are these: Homo sapiens, PBMC; read-out: IC50 of anti-inflammatory activity (IFN production by activated PBMCs). It is filed as cell-based, human. In short, it runs like this: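 Healthy-donor PBMCs (4.10^6/mL, RPMI/10% FBS) were pre-treated with compound, then stimulated with R848 at 5 μg/mL for 24 h. Supernatants were put on twINNE cells, which carry luciferase under five ISREs, for 24 h, and Bright-Glo luminescence was read. IC50 values came from variable-slope dose-response fits.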
A general note: Reporter assays use an easily measured gene product as a stand-in for the process of interest.

For data set [3], the target named is T2, Recombinant CXCR4 receptor (Homo sapiens, UniProt P61073).
T2 construct: host or cells: HEK-293 T cells
In words: G.Validation fluorescence assay of CXCR4 receptor conformational changes in lipidic micelles SB2L4 and SB3L1. It counts as biochemical. The note with it: ligand 150 μM over basal state, 5 μM labelled CXCR4, 40 min. From the text: G.Validation® assay is […] biotech proprietary fluorescence based assay that assesses conformational changes of a receptor upon activation/inactivation. Recombinant CXCR4 receptor is produced and purified from HEK-293 T cells using […] proprietary mixes. Receptor is then reconstituted in detergent buffers containing lipids mimicking the lipidic composition of dendritic cells (DC) and macrophages (SB2L4 and SB3L1). Thereafter, the receptor is labelled with a non-modifying probe allowing the detection of the activation state and conformational change of the receptor upon addition of a ligand. Indeed, the probe emission spectra maximum wavelength (Amax) shifts according to activation/inactivation of the receptor. Thus, kinetic of activation/inactivation of the receptor can be followed by monitoring Amax shift after addition of a ligand over time. Emission spectra were registered for 40 minutes after addition of each ligand. […] Activation/inactivation kinetics were also followed using an exemplary compound of formula (I), i.e.

For data set [4], the system named is 129S8 mice infected with influenza A virus H3 N2 (X31). In words: In vivo immunomodulating effect (type 1 IFNs in BALF) in acute influenza inflammation model. Further details: species or system mouse. The note with it: mouse, in vivo.
Data set [5] deals with Female Balb/c mice, pristane-induced lupus. In words: In vivo pristane-induced lupus mouse model, anti-dsDNA antibody titers in serum by ELISA. The note with it: 15 mg/kg p.o. once daily, as of week 4. The method, then:
Female Balb/c mice (6 to 8 weeks, ENVIGO, Indianapolis, USA) received a single i.p. injection with 0.5 mL of pristane (Sigma-Aldrich, St Louis, USA) to induce a lupus-like disease. That same day, once daily treatment was started (10 mL/kg), either with vehicle control (PBS) i.p., with prednisolone (Sigma-Aldrich, St Louis, USA) in PBS p.o. at a dose of 15 mg/kg (positive control), or with an exemplary compound of formula (I), i.e. Example 60, at a dose of either 3 mg/kg, 10 mg/kg or 30 mg/kg in PBS i.p. After 4, 6 and 8 weeks of dosing, sample bleeds for each mouse were collected via the orbital sinus, and immediately cold processed to sera and stored (50 μl) at −80° C. until analysis. In serum, anti-dsDNA antibody titers are determined using ELISA. Optical density was measured at 450 nm (OD450) using a microplate reader. Data are reported as anti-dsDNA Ab titers (OD), mean±S.E.M. as well as the statistical significance versus pristane-induced vehicle treated group using t-tests.

Structures can show the parent of a compound that is named as a salt. Some results are limits rather than exact numbers.

T1 sequence (P61073 whole entry): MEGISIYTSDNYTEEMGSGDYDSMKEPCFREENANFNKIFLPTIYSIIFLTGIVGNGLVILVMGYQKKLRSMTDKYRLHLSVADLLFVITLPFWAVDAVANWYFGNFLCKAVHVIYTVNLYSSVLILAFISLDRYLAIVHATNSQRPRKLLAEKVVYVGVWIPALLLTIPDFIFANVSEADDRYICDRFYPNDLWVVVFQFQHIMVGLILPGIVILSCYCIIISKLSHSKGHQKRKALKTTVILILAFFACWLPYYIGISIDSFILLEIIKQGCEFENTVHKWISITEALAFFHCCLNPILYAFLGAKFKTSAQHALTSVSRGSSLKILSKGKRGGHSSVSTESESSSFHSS
T2 sequence (P61073 whole entry): as above

Usually IC50 stands for the concentration needed to halve the response being measured. As to `Clc1ccc2c(c1)CN1C(CSC3=NCc4ccccc4N3)=CSC1=N2` [Example 19, 7-chloro-3-(((1,4-dihydroquinazolin-2-yl)thio)methyl)-5H-thiazolo[2,3-b]quinazoline dihydrochloride], the figures for the IC50 in data set [1] and in data set [2] were no less than 15 µM and no more than 10 µM, respectively.

As a reminder, the melting point is the temperature of the solid-liquid transition. For `Cl.c1ccc(CC2CN=C(SCc3cn4cccnc4n3)N2)cc1` (stereo not shown) [Example 51, 2-(((5-benzyl-4,5-dihydro-1H-imidazol-2-yl)thio)methyl)imidazo[1,2-a]pyrimidine hydrochloride], the melting point was 100 to 115 °C. Moreover, the IC50 in data set [2] was greater than 32 µM. On to `c1ccc(CC2CN=C(SCCCc3ccncc3)N2)cc1` (stereo not shown) [Example 55, 4-(3-((5-benzyl-4,5-dihydro-1H-imidazol-2-yl)thio)propyl)pyridine dihydrochloride], for which the values for the IC50 in data set [1] and in data set [2] were no less than 15 µM and 10 to 32 µM, respectively. On the same counts, the results for `C1=C(CSC2=NCc3ccccc3N2)N2CC(Cc3ccccc3)N=C2S1` (stereo not shown) [Example 65, 6-benzyl-3-(((3,4-dihydroquinazolin-2-yl)thio)methyl)-5,6-dihydroimidazo[2,1-b]thiazole dihydrochloride] are no less than 15 µM and no more than 10 µM. With `COc1cc2nc3scc(CSC4=NCc5ccccc5N4)n3c2cc1OC.Cl` [Example 97, 3-(((3,4-dihydroquinazolin-2-yl)thio)methyl)-6,7-dimethoxybenzo[4,5]imidazo[2,1-b]thiazole hydrochloride], the melting point fell in the range of 238 to 240 °C. The IC50 in data set [2] was greater than 32 µM. On the same counts, the results for `Cl.c1ccc2c(c1)CN=C(SCCN1CCc3ccccc31)N2` [Example 115, 2-((2-(indolin-1-yl)ethyl)thio)-1,4-dihydroquinazoline hydrochloride] are 82 to 88 °C and 10 to 32 µM. In the case of `Cl.c1ccc2c(c1)CN=C(SCCCN1CCCC1)N2` [Example 136, 2-((3-(pyrrolidin-1-yl)propyl)thio)-1,4-dihydroquinazoline dihydrochloride], the melting point lay in the range of 178 to 182 °C. In data set [2], the IC50 was no more than 10 µM. The molecule `Cl.c1ccc2c(c1)CN=C(SCCC1CCCC1)N2` [Example 197, 2-((2-cyclopentylethyl)thio)-1,4-dihydroquinazoline hydrochloride] came in with a melting point of 42 to 50 °C. Besides, in data set [2], the IC50 was 10 to 32 µM. In the case of `Cc1ccc(OCC(O)C(C)NC(C)C)c2c1CCC2` (stereo not shown) [ICI 118 551], the “CXCR4 structural activation/inactivation, Amax shift in fluorescence” value in data set [3] was “did not show any significant effect”. The same measure, in the same setting: for `NC[C@H](O)c1ccc(O)c(O)c1` [Norepinephrine] the value was “did not show any significant effect”.

Turning to `CC(C)Cc1ccc(C(C)C(=O)O)cc1` (stereo not shown) [ibuprofen, reference compound], in data set [4], the “concentration of IFNα in BALF vs vehicle-treated infected mice” value is recorded as “significantly lower”, the “concentration of IFNβ in BALF vs vehicle-treated infected mice” value is listed as “significantly lower” and the “concentration of IFNλ2/3 in BALF vs vehicle-treated infected mice” value was “significantly lower”. `C[C@]12C=CC(=O)C=C1CC[C@@H]1[C@@H]2[C@@H](O)C[C@@]2(C)[C@H]1CC[C@]2(O)C(=O)CO` [prednisolone, reference compound]: in data set [5], the “anti-dsDNA Ab titers in serum vs vehicle-treated pristane-induced mice” value is “significantly reduced”.
